Bounds are passed on as bounds.

This test is described as follows: Inhibition of human recombinant GST tagged NIK incubated for 2 hrs in presence of ATP by alpha screen assay.
As for `CN1CC(F)(F)[C@@](O)(c2cc(-c3cccc(-c4ccnc(Nc5cnn(C)c5)n4)n3)no2)C1=O`, the IC50 was below 50 nM. Under `Cc1nocc1Nc1nccc(-c2cccc(-c3cc([C@]4(O)CCN(C)C4=O)on3)n2)n1` stands below 50 nM; under `CN1CC[C@@](O)(c2cn(-c3cccc(-c4ccnc(Nc5ccn(C)n5)n4)n3)nn2)C1=O`, below 50 nM. As for `CN1CC[C@@](O)(c2nnc(-c3cccc(-c4ccnc(Nc5cnn(C)c5Cl)n4)n3)s2)C1=O`, the IC50 was below 50 nM. Then `CN1CC[C@@](O)(c2cc(-c3cccc(-c4ccnc(Nc5cnn(C)c5C5CC5)n4)n3)no2)C1=O`, with below 50 nM.

With `Cc1nscc1Nc1nccc(-c2cccc(-c3cc([C@]4(O)CCN(C)C4=O)on3)n2)n1`, the concentration for half-maximal inhibition (IC50) is below 50 nM.

These data come from BindingDB's records for PubMed 38746901 (Smith, Gambrell & Russell).
